This note sets out measurements from patent US7378232B2 (priority 2002, dated 2008).

The IC50 is the point on the concentration scale where inhibition reaches its midpoint. The low end stands for greater potency, the high end for weaker potency.

One experiment deals with wild-type melan-a melanocytes (A) and P-null melanocytes (P).
Assay: not given
Format: cell-based.
Conditions: not given
Take `CO/C1=C\C(C)=C\[C@@H](C)[C@@H](O)[C@@H](C)C/C(C)=C/C=C/[C@H](OC)[C@@H]([C@@H](C)[C@@H](O)[C@H](C)[C@@]2(O)C[C@@H](O)[C@H](C)[C@@H](C(C)C)O2)OC1=O` [BAFILOMYCIN Al, bafilomycin A1]: the “TOXIN S[…] (as a function of P protein expression)” value is on record as “✓”.
Consider `CCCCS(=N)(=O)CCC(N)C(=O)O` (stereo not shown) [BUTHIONINE SULFOXIMINE (BSO), buthionine sulfoximine], for which the “TOXIN S[…] (as a function of P protein expression)” value is reported as “✓”.
Take `N.N.[Cl][Pt][Cl]` [CISPLATIN, cisplatin]: the “TOXIN S[…] (as a function of P protein expression)” value was “✓”.
`C[C@@H]1[C@H](O)[C@@H](C)/C=C/C=C/C=C/C=C/C=C/C=C/C=C/[C@H](O[C@@H]2O[C@H](C)[C@@H](O)[C@H](N)[C@@H]2O)C[C@@H]2O[C@](O)(C[C@@H](O)C[C@@H](O)[C@H](O)CC[C@@H](O)C[C@@H](O)CC(=O)O[C@H]1C)C[C@H](O)[C@H]2C(=O)O` [AMPHOTERICIN, amphotericin]: the “TOXIN S[…] CHANGE (as a function of P protein expression)” value is “✓”.
Consider `[Cd]` [CADMIUM, cadmium], for which the “TOXIN S[…] (as a function of P protein expression)” value is recorded as “✓”.
The same measure, in the same setting: as for `CC[C@]1(O)C[C@@H]2CN(CCc3c([nH]c4ccccc34)[C@@](C(=O)OC)(c3cc4c(cc3OC)N(C)[C@H]3[C@@](O)(C(=O)OC)[C@H](OC(C)=O)[C@]5(CC)C=CCN6CC[C@]43[C@@H]65)C2)C1` [VINBLASTINE, vinblastine], the entry is “✓”; as for `[Sb]` [ANTIMONY, antimony], “✓”.
As to `C=CCC(N)C(=O)O` (stereo not shown) [ALLYLGLYCINE, allylglycine], the “TOXIN S[…] CHANGE (as a function of P protein expression)” value is “✓”.
Consider arsenate, for which the “TOXIN S[…] (as a function of P protein expression)” value is listed as “✓”.
On the same count and under the same terms, as for `CCN(CC)CCCC(C)Nc1ccnc2cc(Cl)ccc12` (stereo not shown) [CHLOROQUINE, chloroquine], the entry is “✓”; as for `CC[C@H]1/C=C/C=C/C[C@@H](C)[C@H](O)[C@@](C)(O)C(=O)[C@@H](C)[C@H](O)[C@@H](C)C(=O)[C@@H](C)[C@H](O)[C@@H](C)/C=C/C(=O)O[C@@H]2[C@H](C)[C@H](CC1)O[C@]1(CC[C@H](C)[C@H](C[C@@H](C)O)O1)[C@H]2C` [OLIGOMYCIN, oligomycin], “✓”.
Still for that read-out and setting: as for `C[C@@H]1C[C@@H]([C@H](O)CC2CC(=O)NC(=O)C2)C(=O)[C@@H](C)C1` [CYCLOHEXIMIDE, cycloheximide], the entry is “✓”.
As to `C=C(CC)C(=O)c1ccc(OCC(=O)O)c(Cl)c1Cl` [ETHACRYNIC ACID, ethacrynic acid], the “TOXIN S[…] (as a function of P protein expression)” value was “✓”.
Same read-out and setting: as for `CC(C)[C@@H]1NC(=O)[C@H](C)OC(=O)[C@@H](C(C)C)NC(=O)[C@@H](C(C)C)OC(=O)[C@H](C(C)C)NC(=O)[C@H](C)OC(=O)[C@@H](C(C)C)NC(=O)[C@@H](C(C)C)OC(=O)[C@H](C(C)C)NC(=O)[C@H](C)OC(=O)[C@@H](C(C)C)NC(=O)[C@@H](C(C)C)OC1=O` [VALINOMYCIN, valinomycin], the entry is “✓”; as for arsenic trioxide, “✓”.
For `O=S(=O)([O-])[O-].[Fe+2]` [IRON SULFATE (FESO4), iron sulfate (FeSO4)], the “TOXIN S[…] (as a function of P protein expression)” value was “✓”.
On the same count and under the same terms, as for `O=[Se](=O)(O)O` [SELENATE, selenate], the entry is “✓”; as for arsenite, “✓”.
`COc1cccc2c1C(=O)c1c(O)c3c(c(O)c1C2=O)C[C@@](O)(C(=O)CO)C[C@@H]3O[C@H]1C[C@H](N)[C@H](O)[C@H](C)O1` [DOXORUBICIN, doxorubicin]: the “TOXIN S[…] (as a function of P protein expression)” value is “✓”.
In the case of `N#CC(C#N)=NNc1ccc(OC(F)(F)F)cc1` [FCCP, carbonyl cyanide p-trifluoromethoxyphenylhydrazone], the “TOXIN S[…] (as a function of P protein expression)” value is given as “✓”.
As to `COc1cc(NC(C)CCCN)c2ncccc2c1` (stereo not shown) [PRIMAQUINE, primaquine], the “TOXIN S[…] CHANGE (as a function of P protein expression)” value is on record as “✓”.

The subject of a further experiment is yeast cells expressing / not expressing the P protein (strain SH3866).
Assay: not given
Format: cell-based.
Conditions: not given
With `[Sb]` [ANTIMONY, antimony], the “yeast colony size, P protein-expressing vs non-expressing colonies exposed to the compound” value was “do not reach the same size”.

The same experiment, now with this note: 24-well selective medium-agar, 30° C. for 3 days, FIG. 3A.
In the case of arsenate, the “yeast colony size, P protein-expressing vs non-expressing colonies exposed to the compound” value is recorded as “do not reach the same size”.
On the same count and under the same terms, as for arsenic trioxide, the entry is “do not reach the same size”.

The subject of a further experiment is P protein-expressing yeast cells and control yeast cells. Put plainly: Selenite exposure of yeast: colony size and red precipitate formation. Format: cell-based. As to conditions: 10-50 mM selenite in agar, 30° C. for 3 days, FIG. 3B. As for the experimental part: In another experiment, P protein-expressing yeast cells and control yeast cells were exposed to various concentrations of selenite. The toxic affect of selenite in yeast is believed to be due to DNA damage. The major mode of selenite detoxification appears to be its reduction by glutathione to elementary selenium that accumulates as a red precipitate in the cell vacuole (Pinson et al. Molecular Microbiology 36:679-687(2000)).
10 mM, 20 mM, 30 mM, 40 mM, and 50 mM selenite solutions were prepared in 55° C. selective medium-agar and plated in duplicate into 24-well plates. Actively growing yeast cultures were diluted to A600 values of 0.001, and then 10 μl aliquots were spotted in duplicate onto the selenite-containing agar medium. Plates were incubated at 30° C. for 3 days. […]
`O=[Se](O)O` [selenite]: the “red precipitate accumulation in P-expressing cells vs control cells” value is “accumulate more red precipitate” and the “selenite sensitivity, cells expressing a P protein versus control cells” value is on record as “no difference”.

A further experiment deals with yeast cells expressing the P protein. Put plainly: Nigericin effect on yeast cell viability, P protein-expressing cells. Format: cell-based. As to conditions: Saccharomyces cerevisiae, data not shown.
Consider `CO[C@@H]1C[C@@H](C[C@H]2CC[C@H](C)[C@H]([C@@H](C)C(=O)O)O2)O[C@]2(O[C@](C)([C@H]3CC[C@@](C)([C@@H]4O[C@@H]([C@H]5O[C@@](O)(CO)[C@H](C)C[C@@H]5C)C[C@@H]4C)O3)C[C@H]2C)[C@@H]1C` [nigericin], for which the concentration for half-maximal inhibition (IC50) was 3 µM.

The test system of another experiment is yeast cells not expressing the P protein. Put plainly: Nigericin effect on yeast cell viability, cells without P protein. Format: cell-based. As to conditions: Saccharomyces cerevisiae, data not shown.
With `CO[C@@H]1C[C@@H](C[C@H]2CC[C@H](C)[C@H]([C@@H](C)C(=O)O)O2)O[C@]2(O[C@](C)([C@H]3CC[C@@](C)([C@@H]4O[C@@H]([C@H]5O[C@@](O)(CO)[C@H](C)C[C@@H]5C)C[C@@H]4C)O3)C[C@H]2C)[C@@H]1C` [nigericin], the half-inhibitory concentration (IC50) amounted to 25 µM.
